One may read the IC50 as the concentration that gives 50% inhibition.

From patent publication EP3079693B1 (priority 2013, dated 2015) come the findings set out here.

The subject of series [1] is constitutive gene expression. The series is described as follows: Counter screen: separate reporter system with cell death-activated reporter construct (constitutive gene expression). The conditions noted are these: for toxicity in antiviral and counterscreen assays: at 50uM, both antiviral and counterscreen assay; for observed toxicity or efficacy in either assay tested: antiviral and counterscreen assay. (In general: Counterscreens check selectivity or assay interference.)

For series [2], the target named is T1, influenza A RNA-dependent RNA polymerase (Influenza A virus, UniProt P03428+P03431+P03433). The series is described as follows: cell-based.
Series [3] relates to influenza A/Puerto Rico/8/34 (H1N1) virus. The format is cell-based.
The target of series [4] is T1, influenza A RNA-dependent RNA polymerase.

Where only a bound is given, the exact number is not on record here.

Turning to `CCc1c(C)nc2cc(-c3ccc(F)cc3)nn2c1NCCc1ccccn1` [A0436, 6-ethyl-2-(4-fluorophenyl)-5-methyl-N-(2-(pyridin-2-yl)ethyl)pyrazolo[1,5-a]pyrimidin-7-amine], the “toxicity in antiviral and counterscreen assays” value in series [1] is >10uM (toxic to both antiviral and counterscreen at 50uM). For the same molecule, in series [2], the IC50 is over 10 µM.
`Cc1ccc(-c2cc3nc4c(c(NCCc5ccccn5)n3n2)CCC4)cc1` [A0437, N-(2-(pyridin-2-yl)ethyl)-2-p-tolyl-6,7-dihydro-5H-cyclopenta[d]pyrazolo[1,5-a]pyrimidin-8-amine]: the “observed toxicity or efficacy in either assay tested” value (shortened to “observed toxicity or efficacy”) in series [1] was >50 µM (no observed toxicity or efficacy in either assay tested). For the same molecule, the IC50 in series [2] is over 50 µM.
For `CCc1c(C)nc2cc(-c3ccc(OC)c(OC)c3)nn2c1NCCc1ccc(OC)c(OC)c1` [A0438, N-(3,4-dimethoxyphenethyl)-2-(3,4-dimethoxyphenyl)-6-ethyl-5-methylpyrazolo[1,5-a]pyrimidin-7-amine], the “toxicity in antiviral and counterscreen assays” value in series [1] is >10uM (toxic to both antiviral and counterscreen at 50uM). Also, the IC50 in series [2] was over 10 µM.
On to `CCc1c(C)nc2cc(-c3ccc(OC)c(OC)c3)nn2c1NCCc1ccccc1C` [A0439, 2-(3,4-dimethoxyphenyl)-6-ethyl-5-methyl-N-[2(2-methylphenyl)ethyl]pyrazolo[1,5-a]pyrimidin-7-amine], for which the “concentrations with significant antiviral activity” value in series [3] is recorded as over 7.5 µM. Besides, the IC50 in series [2] was about 5 µM. In addition, in series [4], the “toxicity in the reporter assay” value is “increased toxicity at higher doses due to precipitation”.
`CCc1c(C)nc2cc(-c3ccc(OC)c(OC)c3)nn2c1NCCc1ccc(F)cc1` [A0440, 2-(3,4-dimethoxyphenyl)-6-ethyl-N-(4-fluorophenethyl)-5-methylpyrazolo[1,5-a]pyrimidin-7-amine]: in series [1], the “observed toxicity or efficacy” value was >50 µM (no observed toxicity or efficacy in either assay tested). This molecule showed an IC50 in series [2] of over 50 µM.
In the case of `Fc1ccc(-c2cc3nc4c(c(NCCc5ccccn5)n3n2)CCCC4)cc1` [A0441, 2-(4-fluorophenyl)-N-(2-(pyridin-2-yl)ethyl)-5,6,7,8-tetrahydropyrazolo[5,1-b]quinazolin-9-amine], the “toxicity in antiviral and counterscreen assays” value in series [1] is >10uM (toxic to both antiviral and counterscreen at 50uM). Also, the IC50 in series [2] was over 10 µM.
`Clc1ccc(-c2cc3nc4c(c(NCCc5ccccn5)n3n2)CCCC4)cc1` [A0442, 2-(4-chlorophenyl)-N-(2-(pyridin-2-yl)ethyl)-5,6,7,8-tetrahydropyrazolo[5,1-b]quinazolin-9-amine]: the “toxicity in antiviral and counterscreen assays” value in series [1] is >10uM (toxic to both antiviral and counterscreen at 50uM). In addition, in series [2], the IC50 is over 10 µM.
Consider `COc1ccc(-c2cc3nc(C)c(C)c(N4CCCC4)n3n2)cc1OC` [A0443, 2-(3,4-dimethoxyphenyl)-5,6-dimethyl-7-(pyrrolidin-1-yl)pyrazolo[1,5-a]pyrimidine], for which, in series [1], the “observed toxicity or efficacy” value is >50 µM (no observed toxicity or efficacy in either assay tested). In series [2], this molecule had an IC50 of over 50 µM.
With `COc1ccc(-c2cc3nc4c(c(NCCc5cccnc5)n3n2)CCC4)cc1OC` [A0444, 2-(3,4-dimethoxyphenyl)-N-(2-(pyridin-3-yl)ethyl)-6,7-dihydro-5H-cyclopenta[d]pyrazolo[1,5-a]pyrimidin-8-amine], the “toxicity in antiviral and counterscreen assays” value in series [1] was >10uM (toxic to both antiviral and counterscreen at 50uM). The molecule also gave an IC50 in series [2] of over 10 µM.
For the molecule `CCc1c(C)nc2cc(-c3cc(C)on3)nn2c1NCCc1ccccn1` [A0445, 6-ethyl-5-methyl-2-(5-methylisoxazol-3-yl)-N-(2-(pyridin-2-yl)ethyl)pyrazolo[1,5-a]pyrimidin-7-amine], the “observed toxicity or efficacy” value in series [1] is >50 µM (no observed toxicity or efficacy in either assay tested). Further, in series [2], the IC50 was over 50 µM.
Taken in the same sequence, the figures for `COc1cc(OC)cc(-c2cc3nc(C)cc(NCC(C)c4ccccc4)n3n2)c1` (stereo not drawn) [A0525, 2-(3,5-dimethoxyphenyl)-5-methyl-N-(2-phenylpropyl)pyrazolo[1,5-a]pyrimidin-7-amine] were >50 µM (no observed toxicity or efficacy in either assay tested) and over 50 µM.
Taken in the same sequence, the figures for `CCc1c(C)nc2cc(-c3ccc(OC)c(OC)c3)nn2c1NCc1cc(OC)ccc1OC` [A0526, N-(2,5-dimethoxybenzyl)-2-(3,4-dimethoxyphenyl)-6-ethyl-5-methylpyrazolo[1,5-a]pyrimidin-7-amine] were >50 µM (no observed toxicity or efficacy in either assay tested) and over 50 µM.
On to `CCc1c(C)nc2cc(-c3cc(OC)cc(OC)c3)nn2c1NCCc1ccccc1` [A0527, 2-(3,5-dimethoxyphenyl)-6-ethyl-5-methyl-N-phenethylpyrazolo[1,5-a]pyrimidin-7-amine], for which the “observed toxicity or efficacy” value in series [1] was >50 µM (no observed toxicity or efficacy in either assay tested). The IC50 in series [2] was over 50 µM.
With `COc1ccc(-c2cc3nc(-c4ccccc4)cc(NCc4ccccc4C)n3n2)cc1OC` [A0528, 2-(3,4-dimethoxyphenyl)-N-(2-methylbenzyl)-5-phenylpyrazolo[1,5-a]pyrimidin-7-amine], the “observed toxicity or efficacy” value in series [1] is >50 µM (no observed toxicity or efficacy in either assay tested). Besides, in series [2], the IC50 is over 50 µM.
For `COc1ccc(-c2cc3nc4c(c(NCc5ccccc5F)n3n2)CCCC4)cc1` [A0529, N-(2-fluorobenzyl)-2-(4-methoxyphenyl)-5,6,7,8-tetrahydropyrazolo[5,1-b]quinazolin-9-amine], in series [1], the “observed toxicity or efficacy” value is >50 µM (no observed toxicity or efficacy in either assay tested). In series [2], this molecule came in with an IC50 of over 50 µM.
The corresponding values for `COc1ccc(-c2cc3nc(C)cc(NCc4ccc5c(c4)OCO5)n3n2)cc1` [A0530, N-(benzo[d][1,3]dioxol-5-ylmethyl)-2-(4-methoxyphenyl)-5-methylpyrazolo[1,5-a]pyrimidin-7-amine] are >50 µM (no observed toxicity or efficacy in either assay tested) and over 50 µM.
In the case of `Cc1cc(NC(CO)C(O)c2ccccc2)n2nc(-c3cccc(F)c3)cc2n1` (stereo not drawn) [A0531, 2-(2-(3-fluorophenyl)-5-methylpyrazolo[1,5-a]pyrimidin-7-ylamino)-1-phenylpropane-1,3-diol], the “observed toxicity or efficacy” value in series [1] is >50 µM (no observed toxicity or efficacy in either assay tested). Also, the IC50 in series [2] is over 50 µM.
Consider `Cc1cc(NCC(O)c2cccc(O)c2)n2nc(-c3cccc(F)c3)cc2n1` (stereo not drawn) [A0532, 3-(2-(2-(3-fluorophenyl)-5-methylpyrazolo[1,5-a]pyrimidin-7-ylamino)-1-hydroxyethyl)phenol], for which the “observed toxicity or efficacy” value in series [1] is >50 µM (no observed toxicity or efficacy in either assay tested). Besides, the IC50 in series [2] was over 50 µM.
With `COc1ccc(-c2cc3nccc(NCc4ccccc4OC)n3n2)cc1` [A0547, N-(2-methoxybenzyl)-2-(4-methoxyphenyl)pyrazolo[1,5-a]pyrimidin-7-amine], the “observed toxicity or efficacy” value in series [1] is >50 µM (no observed toxicity or efficacy in either assay tested). In addition, the IC50 in series [2] was over 50 µM.
As for `COc1ccc(-c2cc3nc(C)cc(NCc4ccccc4)n3n2)cc1` [A0548, N-benzyl-2-(4-methoxyphenyl)-5-methylpyrazolo[1,5-a]pyrimidin-7-amine], in series [1], the “observed toxicity or efficacy” value is >50 µM (no observed toxicity or efficacy in either assay tested). Further, the IC50 in series [2] is over 50 µM.
Consider `COc1ccc(-c2c(C)nn3c(NCC(C)c4ccccc4)cc(C)nc23)cc1OC` (stereo not drawn) [A0549, 3-(3,4-dimethoxyphenyl)-2,5-dimethyl-N-(2-phenylpropyl)pyrazolo[1,5-a]pyrimidin-7-amine], for which the “observed toxicity or efficacy” value in series [1] was >50 µM (no observed toxicity or efficacy in either assay tested). Also, the IC50 in series [2] is over 50 µM.
As to `COc1ccc(-c2c(C)nn3c(N4CCc5ccccc5C4)cc(C)nc23)cc1OC` [A0550, 2-(3-(3,4-dimethoxyphenyl)-2,5-dimethylpyrazolo[1,5-a]pyrimidin-7-yl)-1,2,3,4-tetrahydroisoquinoline], the “observed toxicity or efficacy” value in series [1] was >50 µM (no observed toxicity or efficacy in either assay tested). In addition, in series [2], the IC50 was over 50 µM.
Taken in the same sequence, the figures for `COc1ccc(-c2cc3c(=O)[nH]nc(SCc4ccc5c(c4)OCO5)n3n2)cc1OC` [A0551, 7-(benzo[d][1,3]dioxol-5-ylmethylthio)-2-(3,4-dimethoxyphenyl)pyrazolo[1,5-d][1,2,4]triazin-4(5H)-one] were >50 µM (no observed toxicity or efficacy in either assay tested) and over 50 µM.
Regarding `CCOc1ccc(-c2cc3c(SCc4cccc(C)c4)nccn3n2)cc1` [A0552, 2-(4-ethoxyphenyl)-4-(3-methylbenzylthio)pyrazolo[1,5-a]pyrazine], in series [1], the “observed toxicity or efficacy” value was >50 µM (no observed toxicity or efficacy in either assay tested). Further, in series [2], the IC50 is over 50 µM.
As to `COc1ccc(-c2cc3c(=O)[nH]nc(SCc4ccccc4Cl)n3n2)cc1OC` [A0553, 7-(2-chlorobenzylthio)-2-(3,4-dimethoxyphenyl)pyrazolo[1,5-d][1,2,4]triazin-4(5H)-one], the “observed toxicity or efficacy” value in series [1] was >50 µM (no observed toxicity or efficacy in either assay tested). The molecule also had a half-maximal inhibitory concentration (IC50) in series [2] of over 50 µM.
